From patent US8293891B2, “4 (pyrrolopyridinyl)pyrimidin-2-ylamine derivatives” (Merck Patent Gesellschaft mit Beschrankter Haftung, priority 2007, dated 2012)

How the values were obtained:
Type in all cases: cell-based
A2780 (ovary) = experiment: Inhibition of the proliferation/vitality of tumour cells (Alamar Blue), A2780; conditions: Homo sapiens, 96 h, 4 days cultivation
Method: (§1) The cells are sown in a suitable cell density in microtitre plates (96-well format) and the test substances are added in the form of a concentration series. After four further days of cultivation in serum-containing medium, the tumour cell proliferation/tumour cell vitality can be determined by means of an Alamar Blue test system.
The cells are cultivated in medium. At intervals of several days, the cells are detached from the culture dishes with the aid of trypsin solution and sown in suitable dilution in fresh medium. The cells are cultivated at 37° Celsius and 10% CO2.
A defined number of cells (for example 2000 cells) per culture/well in a volume of 180 μl of culture medium are sown in microtitre plates (96 well cell-culture plates) using a multichannel pipette. The cells are subsequently cultivated in a CO2 incubator (37° C. and 10% CO2).
The test substances are dissolved, for example, in DMSO and subsequently employed in corresponding concentration (if desired in a dilution series) in the cell culture medium. The dilution steps can be adapted depending on the efficiency of the active ingredients and the desired spread of the concentrations. Cell culture medium is added to the test substances in corresponding concentrations. The addition of the test substances to the cells can take place on the same day as the sowing of the cells. To this end, in each case 20 μl of substance solution from the predilution plate are added to the cultures/wells. The cells are cultivated for a further 4 days at 37° Celsius and 10% CO2.
In each case, 20 μl of Alamar Blue reagent are added per well, and the microtitre plates are incubated, for example, for a further seven hours in a CO2 incubator (at 37° C. and 10% CO2). The plates are measured in a reader with a fluorescence filter at a wavelength of 540 nm. The plates can be shaken gently immediately before the measurement.
(§2) The absorbance value of the medium control (no cells and test substances used) is subtracted from all other absorbance values. The controls (cells without test substance) are set equal to 100 per cent, and all other absorbance values are set in relation thereto (for example in % of control):
(§3) IC50 values (50% inhibition) are determined with the aid of statistics programs, such as, for example, RS1.

Colo205 (intestine) = experiment: Inhibition of the proliferation/vitality of tumour cells (Alamar Blue), Colo205; conditions: Homo sapiens, COLO 205, 96 h, 4 days cultivation
Method: as §1
(§4) The cells are cultivated in medium. At intervals of several days, the cells are detached from the culture dishes with the aid of trypsin solution and sown in suitable dilution in fresh medium. The cells are cultivated at 37° Celsius and 10% CO2. […]
(§5) In each case, 20 μl of Alamar Blue reagent are added per well, and the microtitre plates are incubated, for example, for a further seven hours in a CO2 incubator (at 37° C. and 10% CO2). The plates are measured in a reader with a fluorescence filter at a wavelength of 540 nm. […]
as §2, §3

PC3 (prostate) = experiment: Inhibition of the proliferation/vitality of tumour cells (Alamar Blue), PC3; conditions: Prostate cell, 96 h, 4 days cultivation
Method: as §1, §4, §5, §2, §3

MCF7 (breast) = experiment: Inhibition of the proliferation/vitality of tumour cells (Alamar Blue), MCF7; conditions: Homo sapiens, 96 h, 4 days cultivation
Method: as §1, §4, §5, §2, §3

COc1ccc(Nc2nccc(-c3c[nH]c4ccncc34)n2)cc1 [Compound A8]
IC50 (A2780 (ovary)): 1000 to 10000 nM

c1ccc(Nc2nccc(-c3c[nH]c4ccncc34)n2)cc1 [Compound A1, phenyl[4-(1H-pyrrolo[3,2-c]pyridin-3-yl)pyrimidin-2-yl]-amine]
IC50 (Colo205 (intestine)): 10 to 1000 nM | IC50 (A2780 (ovary)): 10 to 1000 nM | IC50 (PC3 (prostate)): 10 to 1000 nM | IC50 (MCF7 (breast)): 10 to 1000 nM

Fc1cccc(Nc2nccc(-c3c[nH]c4ccncc34)n2)c1 [Compound A7]
IC50 (A2780 (ovary)): 10 to 1000 nM

Cc1ccccc1Nc1nccc(-c2c[nH]c3ccncc23)n1 [Compound A6, [4-(1H-pyrrolo-[3,2-c]pyridin-3-yl)pyrimidin-2-yl]-o-tolyl-amine]
IC50 (A2780 (ovary)): 1000 to 10000 nM
